Several values for one entry are separate records, joined by “and”; a condition that tells them apart may be missing. Equal values may be shown once. Toxic doses and inconclusive results are not listed.
Test system: P388 leukemia ip, CD2F1 mice, survival T/C
Test: NCI In Vivo Anticancer Drug Screen. Data for tumor model P388 Leukemia (intraperitoneal) in CD2F1 (CDF1) mice
Details: endpoint: median survival time, higher = longer survival
Outline: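 Mice carrying the transplanted tumor received test compound or vehicle. Survival was recorded in each group, and the value is the treated-group measurement divided by that of the vehicle-treated control group.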

[1] = dose: 50.0 mg/kg/injection, schedule: Q01DX009 (ip), vehicle: saline with Tween-80
[2] = dose: 100.0 mg/kg/injection, schedule: Q01DX009 (ip), vehicle: saline with Tween-80
[3] = dose: 200.0 mg/kg/injection, schedule: Q01DX009 (ip), vehicle: saline with Tween-80
[4] = dose: 60.0 mg/kg/injection, schedule: Q01DX005 (ip), vehicle: saline with Tween-80
[5] = dose: 120.0 mg/kg/injection, schedule: Q01DX005 (ip), vehicle: saline with Tween-80
[6] = dose: 50.0 mg/kg/injection, schedule: Q01DX005 (ip), vehicle: saline with Tween-80
[7] = dose: 100.0 mg/kg/injection, schedule: Q01DX005 (ip), vehicle: saline with Tween-80
[8] = dose: 200.0 mg/kg/injection, schedule: Q01DX005 (ip), vehicle: saline with Tween-80
[9] = dose: 50.0 mg/kg/injection, schedule: Q01DX005 (ip), vehicle: Klucel (hydroxypropylcellulose) (HPC)
[10] = dose: 100.0 mg/kg/injection, schedule: Q01DX005 (ip), vehicle: Klucel (hydroxypropylcellulose) (HPC)
[11] = dose: 200.0 mg/kg/injection, schedule: Q01DX005 (ip), vehicle: Klucel (hydroxypropylcellulose) (HPC)

SMILES: CC(C)(CO)NC(=O)c1ccccc1Br
- T/C [1]: 100 % of control
- T/C [2]: 100 % of control
- T/C [3]: 99 % of control

SMILES: CC12CCC3(C)OCC(CO)(CO1)N23 (configuration not stated)
- T/C [1]: 91 % of control
- T/C [2]: 90 % of control
- T/C [3]: 91 % of control

SMILES: C=CC(=NC(C)(C)C)Nc1ccccc1OC
- T/C (dose: 1.56 mg/kg/injection, schedule: Q01DX009 (ip), vehicle: saline): 99 % of control and 89 % of control
- T/C (dose: 3.12 mg/kg/injection, schedule: Q01DX005 (ip), vehicle: Klucel (hydroxypropylcellulose) (HPC)): 117 % of control
- T/C (dose: 3.12 mg/kg/injection, schedule: Q01DX009 (ip), vehicle: saline): 111 % of control and 86 % of control and 98 % of control
- T/C (dose: 6.25 mg/kg/injection, schedule: Q01DX005 (ip), vehicle: Klucel (hydroxypropylcellulose) (HPC)): 117 % of control
- T/C (dose: 6.25 mg/kg/injection, schedule: Q01DX009 (ip), vehicle: saline): 102 % of control and 120 % of control and 95 % of control
- T/C (dose: 12.5 mg/kg/injection, schedule: Q01DX005 (ip), vehicle: Klucel (hydroxypropylcellulose) (HPC)): 114 % of control

SMILES: CNC(C)C1(O)Cc2c(O)c3c(c(O)c2C(OC2CC(N)C(O)C(C)O2)C1)C(=O)c1c(OC)cccc1C3=O (configuration not stated)
- T/C (dose: 4.0 mg/kg/injection, schedule: Q01DX009 (ip), vehicle: water): 150 % of control
- T/C (dose: 8.0 mg/kg/injection, schedule: Q01DX009 (ip), vehicle: water): 157 % of control and 161 % of control
- T/C (dose: 16.0 mg/kg/injection, schedule: Q01DX009 (ip), vehicle: water): 95 % of control

SMILES: CC(=O)c1ccc(N=C(C#N)C2=C(O)c3ccccc3C2=O)cc1
- T/C [4]: 115 % of control
- T/C [5]: 120 % of control

SMILES: COc1ccc(C(O)C2CC(=O)NN=C2C)cc1OC (configuration not stated)
- T/C [4]: 100 % of control
- T/C [5]: 100 % of control
- T/C (dose: 240.0 mg/kg/injection, schedule: Q01DX005 (ip), vehicle: saline with Tween-80): 99 % of control

SMILES: Cc1cc2nc(CC(O)(C(F)(F)F)C(F)(F)F)oc2cc1C
- T/C (dose: 100.0 mg/kg/injection, schedule: Q04DX003 (ip), vehicle: saline with Tween-80): 95 % of control
- T/C (dose: 200.0 mg/kg/injection, schedule: Q04DX003 (ip), vehicle: saline with Tween-80): 95 % of control
- T/C (dose: 400.0 mg/kg/injection, schedule: Q04DX003 (ip), vehicle: saline with Tween-80): 100 % of control

SMILES: CC12CCC/C(=N\NC(N)=S)C1C(=O)NC(=O)C2 (configuration not stated)
- T/C [6]: 99 % of control
- T/C [7]: 96 % of control
- T/C [8]: 97 % of control

SMILES: O=C1NC(=O)C2(Br)Nc3ccc(Br)cc3C(=O)C2N1 (configuration not stated)
- T/C [9]: 100 % of control
- T/C [10]: 98 % of control
- T/C [11]: 90 % of control

SMILES: ClCCc1cnc[nH]1
- T/C (dose: 6.25 mg/kg/injection, schedule: Q01DX009 (ip), vehicle: water): 101 % of control
- T/C (dose: 12.5 mg/kg/injection, schedule: Q01DX009 (ip), vehicle: water): 101 % of control
- T/C (dose: 25.0 mg/kg/injection, schedule: Q01DX009 (ip), vehicle: water): 108 % of control
- T/C (dose: 50.0 mg/kg/injection, schedule: Q01DX009 (ip), vehicle: water): 110 % of control
- T/C (dose: 100.0 mg/kg/injection, schedule: Q01DX009 (ip), vehicle: water): 95 % of control

SMILES: CN1CCN(c2cc3nc[nH]c(=O)c3cc2[N+](=O)[O-])CC1
- T/C (dose: 50.0 mg/kg/injection, schedule: Q04DX003 (ip), vehicle: Klucel (hydroxypropylcellulose) (HPC)): 99 % of control
- T/C (dose: 100.0 mg/kg/injection, schedule: Q04DX003 (ip), vehicle: Klucel (hydroxypropylcellulose) (HPC)): 104 % of control

SMILES: CCn1nccc1N
- T/C (dose: 6.25 mg/kg/injection, schedule: Q01DX005 (ip), vehicle: saline with Tween-80): 98 % of control
- T/C (dose: 12.5 mg/kg/injection, schedule: Q01DX005 (ip), vehicle: saline with Tween-80): 106 % of control
- T/C (dose: 25.0 mg/kg/injection, schedule: Q01DX005 (ip), vehicle: saline with Tween-80): 104 % of control

SMILES: CC(=O)NNC(=S)Nc1ccccc1
- T/C [6]: 100 % of control
- T/C [7]: 101 % of control
- T/C [8]: 100 % of control

SMILES: O=C(O)CN(CCN(CC(=O)O)CC(=O)O)CCN(CC(=O)O)CC(=O)O
- T/C [9]: 103 % of control
- T/C [10]: 108 % of control
- T/C (dose: 100.0 mg/kg/injection, schedule: Q01DX009 (ip), vehicle: Klucel (hydroxypropylcellulose) (HPC)): 91 % of control
- T/C [11]: 103 % of control
- T/C (dose: 200.0 mg/kg/injection, schedule: Q01DX009 (ip), vehicle: Klucel (hydroxypropylcellulose) (HPC)): 94 % of control

Reference: PubChem BioAssay AID330 (DTP/NCI, 2004)
